In ChEMBL document CHEMBL1201862, “PubChem BioAssay data set” (2004):
Values joined by “and” are separate entries in the source; they are usually repeats but may differ in a detail not shown here. Identical values can stand only once.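 Cultured in 96-well plates, cells were exposed to test compound for 48 hours across five concentrations. GI50 = concentration required for 50% inhibition of growth.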 Active and inactive are the calls of the source. Rule as the data show it: active = GI50 up to about 1.1 µM and inactive = higher.

Experiments:
Experiment in all cases: growth of human tumour cells (NCI), 48 h
HOP-62 = system: HOP-62
OVCAR-3 = system: OVCAR-3
SF-539 = system: SF-539
OVCAR-8 = system: OVCAR-8
SR = system: SR
SK-MEL-2 = system: SK-MEL-2
OVCAR-5 = system: OVCAR-5
NCI/ADR-RES = system: NCI/ADR-RES
SK-OV-3 = system: SK-OV-3
RPMI-8226 = system: RPMI-8226
M14 = system: M14
UACC-257 = system: UACC-257
MCF7 = system: MCF7
EKVX = system: EKVX
Malme-3M = system: Malme-3M
A498 = system: A498
TK-10 = system: TK-10
OVCAR-4 = system: OVCAR-4
NCI-H522 = system: NCI-H522
LOX IMVI = system: LOX IMVI

SMILES | GI50 (HOP-62) | GI50 (OVCAR-3) | GI50 (SF-539) | GI50 (OVCAR-8) | GI50 (SR) | GI50 (SK-MEL-2) | GI50 (OVCAR-5) | GI50 (NCI/ADR-RES) | GI50 (SK-OV-3) | GI50 (RPMI-8226) | GI50 (M14) | GI50 (UACC-257) | GI50 (MCF7) | GI50 (EKVX) | GI50 (Malme-3M) | GI50 (A498) | GI50 (TK-10) | GI50 (OVCAR-4) | GI50 (NCI-H522) | GI50 (LOX IMVI)
C=C(Cl)C(Cl)(CBr)CCC(Br)C(C)(C)Cl (stereo not given) | 703 nM (active) and 785 nM (active) and 1.43 µM (inactive) | 798 nM (active) and 2.23 µM (inactive) and 1.51 µM (inactive) | 1.95 µM (inactive) and 446 nM (active) and 1.27 µM (inactive) | 6.25 µM (inactive) and 2.03 µM (inactive) and 1.26 µM (inactive) | 11.5 µM (inactive) and 4.53 µM (inactive) and 15 µM (inactive) | 1.31 µM (inactive) | 1.93 µM (inactive) and 14.7 µM (inactive) and 3.42 µM (inactive) | 12 µM (inactive) and 2.44 µM (inactive) and 1.83 µM (inactive) | 2.36 µM (inactive) and 27.2 µM (inactive) | 149 nM (active) and 221 nM (active) and 485 nM (active) | 18.7 µM (inactive) and 15.6 µM (inactive) and 26.7 µM (inactive) | 2.78 µM (inactive) and 1.66 µM (inactive) and 2.1 µM (inactive) | 1.26 µM (inactive) and 2.54 µM (inactive) and 220 nM (active) | 1.79 µM (inactive) and 7.05 µM (inactive) and 3.31 µM (inactive) | 13.6 µM (inactive) and 15.3 µM (inactive) and 7.36 µM (inactive) | 1.63 µM (inactive) and 2.79 µM (inactive) and 2.03 µM (inactive) | 3.43 µM (inactive) and 1.93 µM (inactive) and 2.07 µM (inactive) | 2.92 µM (inactive) and 1.6 µM (inactive) and 10.7 µM (inactive) | 16 µM (inactive) and 13.8 µM (inactive) and 14.3 µM (inactive) | 19.1 µM (inactive) and 5.7 µM (inactive) and 15.6 µM (inactive)
O=C1/C(=C\c2ccc([N+](=O)[O-])o2)SC2NC(COc3ccc(Cl)cc3)=NN12 (stereo not given) | 22.5 µM (inactive) | 6.27 µM (inactive) | 4.1 µM (inactive) | 3.18 µM (inactive) | 3.47 µM (inactive) | 18.9 µM (inactive) | 21.2 µM (inactive) | 6.4 µM (inactive) | 24 µM (inactive) | 3.21 µM (inactive) | 2.31 µM (inactive) | 5.09 µM (inactive) | 2.12 µM (inactive) | 5.83 µM (inactive) | 2.4 µM (inactive) | 23.7 µM (inactive) | 17.6 µM (inactive) | 1.87 µM (inactive) | 2.22 µM (inactive) | 2.93 µM (inactive)
COc1cc(C(=O)OC2CC(C)=CC[C@@]3(C)CC[C@](O)(C(C)C)C23)ccc1O (stereo not given in full) | 17.2 µM (inactive) | 18.5 µM (inactive) | 14.1 µM (inactive) | 18.2 µM (inactive) | 25.5 µM (inactive) | 16.4 µM (inactive) | 18 µM (inactive) | 15.4 µM (inactive) | 15.4 µM (inactive) | 25.6 µM (inactive) | 17 µM (inactive) | 15.5 µM (inactive) | 12.4 µM (inactive) | 18.9 µM (inactive) | 18.6 µM (inactive) | 18.9 µM (inactive) | 15 µM (inactive) | 15.9 µM (inactive) | 14.3 µM (inactive) | 16.2 µM (inactive)
Clc1cc(OCC23CC4CC(CC(C4)C2)C3)nc(OCC23CC4CC(CC(C4)C2)C3)n1 | > 100 µM (inactive) | > 100 µM (inactive) | > 100 µM (inactive) | > 100 µM (inactive) | > 100 µM (inactive) | > 100 µM (inactive) | > 100 µM (inactive) | > 100 µM (inactive) | > 100 µM (inactive) | > 100 µM (inactive) | > 100 µM (inactive) | > 100 µM (inactive) | > 100 µM (inactive) | > 100 µM (inactive) | > 100 µM (inactive) | > 100 µM (inactive) | > 100 µM (inactive) | > 100 µM (inactive) | > 100 µM (inactive) | > 100 µM (inactive)
CCC(CC)C(=O)OC[n+]1cccc(-c2c(COC(=O)NC(C)C)c(COC(=O)NC(C)C)c3n2CCC3)c1 | 43.4 µM (inactive) | > 100 µM (inactive) | 68.7 µM (inactive) | > 100 µM (inactive) | 5.87 µM (inactive) | > 100 µM (inactive) | > 100 µM (inactive) | 63.2 µM (inactive) | > 100 µM (inactive) | > 100 µM (inactive) | 56.9 µM (inactive) | > 100 µM (inactive) | 64.9 µM (inactive) | > 100 µM (inactive) | > 100 µM (inactive) | > 100 µM (inactive) | > 100 µM (inactive) | > 100 µM (inactive) | 56.2 µM (inactive) | > 100 µM (inactive)
O=C1C=C2C(=NC34CCCCC3C(c3ccccc3)C3=C(c5ccccc5CC3)N24)c2ccccc21 (stereo not given) | > 10 µM (inactive) | > 10 µM (inactive) | > 10 µM (inactive) | > 10 µM (inactive) | 8.22 µM (inactive) | > 10 µM (inactive) | > 10 µM (inactive) | > 10 µM (inactive) | > 10 µM (inactive) | > 10 µM (inactive) | > 10 µM (inactive) | > 10 µM (inactive) | > 10 µM (inactive) | > 10 µM (inactive) | > 10 µM (inactive) | > 10 µM (inactive) | > 10 µM (inactive) | > 10 µM (inactive) | > 10 µM (inactive) | > 10 µM (inactive)
Nc1ncnc2c1ncn2[C@H]1C=C[C@@H](NO)C1 | > 100 µM (inactive) | > 100 µM (inactive) | > 100 µM (inactive) | > 100 µM (inactive) | > 100 µM (inactive) | > 100 µM (inactive) | > 100 µM (inactive) | > 100 µM (inactive) | > 100 µM (inactive) | > 100 µM (inactive) | > 100 µM (inactive) | > 100 µM (inactive) | > 100 µM (inactive) | > 100 µM (inactive) | > 100 µM (inactive) | > 100 µM (inactive) | > 100 µM (inactive) | > 100 µM (inactive) | > 100 µM (inactive) | > 100 µM (inactive)
CC(CCc1ccccc1)NCC(O)n1c(/N=N/N(C)C)nc2c1c(=O)n(C)c(=O)n2C (stereo not given) | > 100 µM (inactive) | > 100 µM (inactive) | > 100 µM (inactive) | > 100 µM (inactive) | 43.2 µM (inactive) | > 100 µM (inactive) | > 100 µM (inactive) | > 100 µM (inactive) | > 100 µM (inactive) | > 100 µM (inactive) | > 100 µM (inactive) | > 100 µM (inactive) | > 100 µM (inactive) | > 100 µM (inactive) | > 100 µM (inactive) | > 100 µM (inactive) | > 100 µM (inactive) | > 100 µM (inactive) | > 100 µM (inactive) | > 100 µM (inactive)
Cn1c(=O)nc2n(-c3ccc(Cl)cc3)c3cc(Cl)ccc3nc-2c1=O | 18.1 µM (inactive) | 1.95 µM (inactive) | 16.5 µM (inactive) | 2.72 µM (inactive) | 3.93 µM (inactive) | 2.55 µM (inactive) | 15 µM (inactive) | 8.51 µM (inactive) | 18.3 µM (inactive) | 3.79 µM (inactive) | 2.07 µM (inactive) | 1.82 µM (inactive) | 0.577 µM (active) | 8.85 µM (inactive) | 1.89 µM (inactive) | 14.3 µM (inactive) | 20 µM (inactive) | 1.32 µM (inactive) | 2.99 µM (inactive) | 2.03 µM (inactive)
O=C(CCCl)NN=C1NCCN1 | > 100 µM (inactive) | > 100 µM (inactive) | > 100 µM (inactive) | > 100 µM (inactive) | > 100 µM (inactive) | > 100 µM (inactive) | > 100 µM (inactive) | > 100 µM (inactive) | > 100 µM (inactive) | > 100 µM (inactive) | > 100 µM (inactive) | > 100 µM (inactive) | > 100 µM (inactive) | > 100 µM (inactive) | > 100 µM (inactive) | > 100 µM (inactive) | > 100 µM (inactive) | > 100 µM (inactive) | > 100 µM (inactive) | > 100 µM (inactive)
CC(=O)NNc1nc(C)c(C(/C=C/c2ccc([N+](=O)[O-])cc2)=N/N)s1 | 68.1 µM (inactive) | > 100 µM (inactive) | > 100 µM (inactive) | > 100 µM (inactive) | 37.7 µM (inactive) | > 100 µM (inactive) | > 100 µM (inactive) | > 100 µM (inactive) | 41.3 µM (inactive) | 30.9 µM (inactive) | > 100 µM (inactive) | 88.1 µM (inactive) | > 100 µM (inactive) | 94.4 µM (inactive) | > 100 µM (inactive) | 70.5 µM (inactive) | 37.9 µM (inactive) | > 100 µM (inactive) | > 100 µM (inactive) | 86.9 µM (inactive)
